According to paper PMC5444710, “Enhancement of radiosensitivity by the novel anticancer quinolone derivative vosaroxin in preclinical glioblastoma models” (Oncotarget, 2017):

Test system: GBM cell lines
Assay: Clonogenic survival assays (abstract statement)
Format: cell-based
Settings: Homo sapiens
Protocol: For clonogenic survival assays, exponentially growing cells (70% confluence) were cultured in regular media and treated with vosaroxin, at the appropriate concentrations, or vehicle (final dimethyl sulfoxide concentration of 0.1%) for 48 hours. Tumor cells were then irradiated at room temperature with increasing doses of radiation (0–6 Gy) using an x-ray linear accelerator (dose rate of 200 cGy/min). Nonirradiated controls were handled identically to the irradiated cells with the exception of the radiation exposure. […] Colonies containing more than 50 cells were counted. The plating efficiency was calculated as the number of colonies observed divided by the number of cells plated. The surviving fraction was calculated as the number of colonies formed in the treated dishes compared with the number formed in the control. The survival curves were analyzed using SPSS statistical software (Chicago, IL, USA) by means of a fit of the data by a weighted, stratified, linear regression, according to the linear-quadratic formula: S(D)/S(O) = exp-(αD + βD2). The cell survival enhancement ratio was calculated as the ratio of the mean inactivation dose under control conditions divided by the mean inactivation dose after treatment as previously described.

## CN[C@H]1CN(c2ccc3c(=O)c(C(=O)O)cn(-c4nccs4)c3n2)C[C@@H]1OC [vosaroxin]
  IC50: 10 to 100 nM
